Read-outs that look alike come from different tables or passages of the source.
Experiments:
TGF-β = assay: AlphaScreen SureFire p-SMAD3 (Ser423/425) assay, TGF-β-stimulated cells; type: cell-based
Description: (§1) The p-SMAD-3 (Ser423/425) SureFire® assay has been designed to measure the phosphorylation of endogenous cellular p-SMAD-3 (Ser423/425) in cell lysates and is a system for the screening of both modulators of receptor activation (e.g. agonists and antagonists) as well as agents acting intracellularly, such as small molecule inhibitors of upstream events. The assay will measure p-SMAD-3 (Ser423/425) activation by either cloned or endogenous receptors, and can be applied to primary cells.
(§2) 96-well Assay Protocol for 293FT and RMS13 adherent cells can be carried out manually or in high throughput with liquid handling robots.
(§3) The cells (80 μL of cells for 96 well plates) were plated in collagen coated tissue culture plates in RPMI or FreeStyle medium (Invitrogen) and incubated overnight. For manual analysis, 6 plates for GDF8, 6 plates for TGFβ, and optionally 6 plates for Alk5ca(ALK5 constitutively active) were used.
(§4) The compound dilution plates were prepared as follows: 12 μL of DMSO was transferred into first column of 96-well plate, and 16 μL of DMSO was transferred into columns 2-12 of the 96-well plate. 12 μL of compound solution was transferred into first column of the DMSO-containing 96-well plate. Three-fold dilution was performed up to column 10 of the DMSO-containing 96-well plate.
(§5) The plate containing cells were treated with compounds for about 10 minutes, and then ligand was added. GDF8 or TGFb was added to plates to stimulate. 293FL cells were stimulatedfor 90 minutes at 37° C.; and RMS13 cells were stimulated for 60 minutes at 37° C. The medium was then removed from the cells, and 1× Lysis Buffer (about 25 μL) was added and the plate was gently agitated on plate shaker for 5-10 minutes.
(§6) The lysate (5 μL) was then placed into 384-well shallow plates avoiding the generation of bubbles. To this, the Reaction Buffer+Activation Buffer+AlphaScreen® Acceptor beadsmixture (5 μL) was added. The plate was sealed with adhesive cover and shielded from light (e.g., with metal foil), and agitated gently on plate shaker for 2 hours at room temperature.
(§7) Dilution buffer+AlphaScreen® Donor beads (2 μL) was then added, and the plate was intubated on the plate shaker for an additional 1½ hours. After completion, the plate was read on Synergy-4 or Enspire plate reader, using AlphaScreen® pSMAD3® settings.
(§8) Representative results for inhibition of GDF8 (data=GDF pSMAD (MPC11) (μM)) and TGF-β (data=TGF-β pSMAD (MPC-11) (μM)) signaling are shown in Table 1(A=<0.05 μM, B=0.05−<0.1 μM, C=0.1−<1.0 μM, D=>1.0 μM): […]

GDF8 = assay: AlphaScreen SureFire p-SMAD3 (Ser423/425) assay, GDF8-stimulated cells; type: cell-based
Description: as §1, §2, §3, §4, §5, §6, §7, §8

[1] = Mus musculus, p-SMAD3 (Ser423/425) AlphaScreen in cell lysate, MPC-11, TGF-β stimulation, read-out: TGF-β: inhibition of TGF-β signaling, TGF-β pSMAD (MPC-11)
[2] = Mus musculus, MPC-11, p-SMAD3 (Ser423/425) AlphaScreen in cell lysate, MPC11, GDF8 stimulation, read-out: GDF8: inhibition of GDF8 signaling, GDF pSMAD (MPC11)
[3] = Mus musculus, MPC-11, read-out: TGF-β: inhibition of TGF-β signaling, TGF-β pSMAD (MPC-11), p-SMAD3 (Ser423/425) AlphaScreen in cell lysate, TGF-β stimulation
[4] = Mus musculus, MPC-11, read-out: GDF8: inhibition of GDF8 signaling, GDF pSMAD (MPC11), p-SMAD3 (Ser423/425) AlphaScreen in cell lysate, GDF8 stimulation

Row | SMILES | IC50 (TGF-β; [1]) | IC50 (GDF8; [2]) | further results
1 | Cc1cc(-c2nc3n(c2-c2ccc4ncccc4c2)CCC3)c(F)cc1Cl [Compound 255] | > 1000 nM | > 1000 nM | 
2 | Nc1ncnc2ccc(-c3c(-c4cc(F)cc(F)c4F)nc4n3CCN4)cc12 [Compound 113, 6-(6-(2,3,5-trifluorophenyl)-2,3-dihydro-1H-imidazo[1,2-a]imidazol-5-yl)quinazolin-4-amine] | 50 to 100 nM | 50 to 100 nM | 
3 | Fc1ccc(-c2nc3n(c2-c2ccc4ncsc4c2)CCC3)c(F)c1 [Compound 203, 6-(2-(2,4-difluorophenyl)-6,7-dihydro-5H-pyrrolo[1,2-a]imidazol-3-yl)benzo[d]thiazole] | 100 to 1000 nM | < 50 nM | 
4 | COc1c(C)cc(-c2nc3n(c2-c2ccc4nccn4c2)CCC3)cc1C [Compound 31, 6-(2-(4-methoxy-3,5-dimethylphenyl)-6,7-dihydro-5H-pyrrolo[1,2-c]imidazol-3-yl)imidazo[1,2-c]pyridine] | > 1000 nM | > 1000 nM | 
5 | COCCOc1cnc2ccc(-c3c(-c4cc(F)cc(F)c4F)nc4n3CCCN4)cc2n1 [Compound 167, 2-(2-methoxyethoxy)-7-(2-(2,3,5-trifluorophenyl)-5,6,7,8-tetrahydroimidazo[1,2-a]pyrimidin-3-yl)quinoxaline] | > 1000 nM | > 1000 nM | 
6 | Cc1cc(-c2nc3n(c2-c2ccc4nccn4c2)CCC3)cc(C)c1F [Compound 43, 6-(2-(4-fluoro-3,5-dimethylphenyl)-6,7-dihydro-5H-pyrrolo[1,2-a]imidazol-3-yl)imidazo[1,2-c]pyridine] | > 1000 nM | > 1000 nM | 
7 | Cc1cc(-c2nc3n(c2-c2ccc4ncnn4c2)CCC3)c(F)cc1Cl [Compound 28, 6-(2-(4-chloro-2-fluoro-5-methylphenyl)-6,7-dihydro-5H-pyrrolo[1,2-c]imidazol-3-yl)-[1,2,4]triazolo[1,5-c]pyridine] | > 1000 nM | > 1000 nM | 
8 | Fc1cccc(F)c1-c1nc2n(c1-c1ccc3nccn3c1)CCC2 [Compound 11] | > 1000 nM | 100 to 1000 nM | 
9 | Fc1ccc(-c2nc3occn3c2-c2ccc3cn[nH]c3c2)cc1F [Compound 134, 6-(3,4-difluorophenyl)-5-(1H-indazol-6-yl)imidazo[2,1-b]oxazole] | 100 to 1000 nM | 50 to 100 nM | 
10 | Fc1ccc(-c2nc3n(c2-c2ccc4ncsc4c2)CC2(CCCC2)C3)cc1 [Compound 325, 6-(2′-(4-fluorophenyl)-5′H,7′H-spiro[cyclopentane-1,6′-pyrrolo[1,2-a]imidazol]-3′-yl)benzo[d]thiazole] |  |  | IC50 (TGF-β; [3]): > 1000 nM; IC50 (GDF8; [4]): > 1000 nM
11 | Fc1ccc(-c2nc3occn3c2-c2ccc3[nH]ncc3c2)cc1 [Compound 126, 6-(4-fluorophenyl)-5-(1H-indazol-5-yl)imidazo[2,1-b]oxazole] | 50 to 100 nM | < 50 nM | 
12 | Cc1c(F)ccc(-c2nc3n(c2-c2ccc4nccnc4c2)CCC3)c1C [Compound 330, 6-(2-(4-fluoro-2,3-dimethylphenyl)-6,7-dihydro-5H-pyrrolo[1,2-a]imidazol-3-yl)quinoxaline] |  |  | IC50 (TGF-β; [3]): > 1000 nM; IC50 (GDF8; [4]): > 1000 nM
13 | Cc1cc(-c2nc3n(c2-c2ccc4nccnc4c2)CCC3)c(Cl)cc1F [Compound 318, 6-(2-(2-chloro-4-fluoro-5-methylphenyl)-6,7-dihydro-5H-pyrrolo[1,2-a]imidazol-3-yl)quinoxaline] |  |  | IC50 (TGF-β; read-out: TGF-β: inhibition of TGF-β signaling, TGF-β pSMAD (MPC-11), p-SMAD3 (Ser423/425) AlphaScreen in cell lysate, TGF-β stimulation): 100 to 1000 nM; IC50 (GDF8; read-out: GDF8: inhibition of GDF8 signaling, GDF pSMAD (MPC11), p-SMAD3 (Ser423/425) AlphaScreen in cell lysate, GDF8 stimulation): 50 to 100 nM
14 | Fc1ccc(-c2cn3ccoc3n2)cc1F [Compound 131, 6-(3,4-difluorophenyl)imidazo[2,1-b]oxazole] | > 1000 nM | > 1000 nM | 
15 | Cc1cc(-c2nc3n(c2-c2ccc4[nH]ncc4c2)CCC3)c(C)cc1F [Compound 308, 5-(2-(4-fluoro-2,5-dimethylphenyl)-6,7-dihydro-5H-pyrrolo[1,2-a]imidaol-3-yl)-1H-indazole] | > 1000 nM | 100 to 1000 nM | 
16 | Fc1cc(F)c(-c2nc3occn3c2-c2ccc3[nH]ncc3c2)cc1F [Compound 152, 6-(2,4,5-trifluorophenyl)-5-(1H-indazol-5-yl)imidazo[2,1-b]oxazole] | 50 to 100 nM | < 50 nM | 
17 | Fc1cc(F)cc(-c2nc3n(c2-c2ccc4ncsc4c2)CCC3)c1 [Compound 232, 6-(2-(3,5-difluorophenyl)-6,7-dihydro-5H-pyrrolo[1,2-a]imidazol-3-yl)benzo[d]thiazole] |  |  | IC50 (TGF-β; [3]): > 1000 nM; IC50 (GDF8; [4]): 100 to 1000 nM
18 | Fc1cc(-c2nc3n(c2-c2ccc4[nH]ncc4c2)CCC3)c(F)cc1Cl [Compound 239, 5-(2-(4-chloro-2,5-difluorophenyl)-6,7-dihydro-5H-pyrrolo[1,2-a]imidazol-3-yl)-1H-indazole] | > 1000 nM | > 1000 nM | 
19 | Cc1cc(-c2nc3n(c2-c2ccc4nccn4c2)CCC3)c(Cl)cc1F [Compound 68, 6-(2-(2-chloro-4-fluoro-5-methylphenyl)-6,7-dihydro-5H-pyrrolo[1,2-a]imidazol-3-yl)imidazo[1,2-a]pyridine] | 100 to 1000 nM | 50 to 100 nM | 
20 | Nc1ncnc2ccc(-c3c(-c4cc(F)cc(F)c4F)nc4n3CCC4)cc12 [Compound 344, 6-(2-(2,3,5-trifluorophenyl)-6,7-dihydro-5H-pyrrolo[1,2-a]imidazol-3-yl)quinazolin-4-amine] | 100 to 1000 nM | 100 to 1000 nM | 
21 | Cc1cc(-c2nc3n(c2-c2ccc4ncccc4c2)CCC3)cc(C)c1F [Compound 279] | > 1000 nM | > 1000 nM | 
22 | Fc1ccc(Cl)cc1-c1nc2n(c1-c1ccc3nccnc3c1)CCC2 [Compound 337, 6-(2-(5-chloro-2-fluoropheny)-6,7-dihydro-5H-pyrrolo[1,2-a]imidazol-3-yl)quinoxaline] | < 50 nM | < 50 nM | 
23 | Cc1cc(F)c(-c2nc3n(c2-c2ccc4ncccc4c2)CCC3)cc1F [Compound 287, 6-(2-(2,5-difluoro-4-methylphenyl)-6,7-dihydro-5H-pyrrolo[1,2-a]imidazol-3-yl)quinoline] |  |  | IC50 (TGF-β; [3]): > 1000 nM; IC50 (GDF8; [4]): > 1000 nM
24 | Cc1cc(-c2nc3n(c2-c2ccc4nccnc4c2)CCC3)cc(C)c1F [Compound 278, 6-(2-(4-fluoro-3,5-dimethylphenyl)-6,7-dihydro-5H-pyrrolo[1,2-a]imidazol-3-yl)quinoxaline] | > 1000 nM | > 1000 nM | 
25 | Fc1cccc(-c2nc3n(c2-c2ccc4nccn4c2)CCC3)c1 [Compound 7, 6-(2-(3-fluorophenyl)-6,7-dihydro-5H-pyrrolo[1,2-c]imidazol-3-yl)imidazo[1,2-c]pyridine] | > 1000 nM | 100 to 1000 nM | 
26 | COc1ccc(-c2nc3n(c2-c2ccc4ncnn4c2)CCC3)cc1 [Compound 95, 6-(2-(4-methoxyphenyl)-6,7-dihydro-5H-pyrrolo[1,2-a]imidazol-3-yl)-[1,2,4]triazolo[1,5-a]pyridine] |  |  | IC50 (TGF-β; [3]): > 1000 nM; IC50 (GDF8; [4]): > 1000 nM
27 | Fc1ccc(-c2nc3n(c2-c2ccc4nccn4c2)CCC3)cc1 [Compound 2] | 100 to 1000 nM | 100 to 1000 nM | 
28 | Fc1ccc(-c2nc3n(c2-c2ccc4ncnn4c2)CCC3)cc1Cl [Compound 36, 6-(2-(3-chloro-4-fluorophenyl)-6,7-dihydro-5H-pyrrolo[1,2-a]imidazol-3-yl)-[1,2,4]triazolo[1,5-a]pyridine] | 100 to 1000 nM | < 50 nM | 
29 | c1ccc(-c2nc3n(c2-c2ccc4nccn4c2)CCC3)nc1 [Compound 370, 6-(2-(pyridin-2-yl)-6,7-dihydro-5H-pyrrolo[1,2-a]imidazol-3-yl)imidazo[1,2-a]pyridine] | < 50 nM | < 50 nM | 
30 | Cc1cc(-c2nc3n(c2-c2ccc4[nH]ncc4c2)CCC3)c(Cl)cc1F [Compound 316, 5-(2-(2-chloro-4-fluoro-5-methylphenyl)-6,7-dihydro-5H-pyrrolo[1,2-a]imidazol-3-yl)-1H-indazole] |  |  | IC50 (TGF-β; [3]): 100 to 1000 nM; IC50 (GDF8; [4]): 100 to 1000 nM
